{"source": "patent US7001770B1", "about": "“Calpain inhibitors and their applications” (priority 1998, dated 2006)", "key": {"HLF cells": {"test_system": "HLF cells", "assay": "Infectivity: copies of rAd-p53 DNA by PCR", "type": "cell-based", "method": "The effects of the use of calpain inhibitors, particularly CI-1, were investigated in their ability to increase the infectivity of the HLF tumor cell line to rAd-p53. HLF cell lines were prepared in substantial accordance with the teaching of example 6 herein. The cells were exposed to two concentrations of rAd-p53 in the presence and absence of 10 μM CI-1. The total number of copies of rAd-p53 DNA were determined by PCR as described in Example 6. The results of these experiments are presented in Table 4 below and in graphical form in FIG. 7 of the attached drawings.\nA similar experiment was conducted to determine the effect of pre-treatment of the cells with the calpain inhibitor. The cell lines were prepared as indicated above. In this experiment, one group of cells was pretreated with a 10 μM concentration of CI-1 for a period of 6 hours prior to exposure to the Ad-p53. The control sample was not pretreated. The results of these experiments are presented in Table 5 below and in graphical form in FIG. 7 of the attached drawings.\nThe following materials were obtained from Perkin Elmer Corporation under Part No. N808-0028: Gene Amp 10× Taqman Buffer A, 25 mM MgCl2, 5 μM Oligonucleotide Primer “A”, 5 μM Oligonucleotide Primer “B”, 5 units/mL AmpliTaq® Gold DNA Polymerase, 10 μM Taqman Probe. Deoxynucleotide Triphosphates, dATP, dCTP, and dGTP are 10 mM. dUTP is 20 mM. […]"}, "U87 cells": {"test_system": "U87 cells", "assay": "Apoptosis by annexin V-FITC staining, flow cytometry", "type": "cell-based", "method": "P53 was administered to the cells by the use of the replication defective adenoviral vector ACN53 described in Wills, et al., supra. The effect of varying concentrations of rAd-p53 (from 1×10^9 to 2×10^9 rAd-p53 particles/ml of solution) was investigated in combination with CI-1 in a range of 5–20 μm. The effects of individual and combination treatment was determined in the in DLD1, RKO, HLF and SK-Hep1 cells was investigated in substantial accordance with the teaching of Examples 2 and 3 herein. […] The results are presented in graphical format in FIG. 3 of the attached drawings. In brief, the results were as follows:\nThe effect of an inhibitor of μ-calpains, CI-1 (N-acetyl-leu-leu-norleucinal), was investigated for its ability to enhance p53 mediated apoptosis in tumor cell lines having p53+ and p53− status listed in Table1. […] To detect a G0/G1 block, bromodeoxyuridine (BrdU) incorporation followed by flow cytometric analysis was done 17 hours post-treatment as described in Example 4 herein. […] The results of these experiments are presented in FIGS. 1 and 2 of the attached drawings. In FIG. 1, each point on the graph represents percentage annexin V positive after background percentage (DMF alone) was subtracted.\nAn aliquot containing approximately 1×10^6 cells of each type was placed in a T-225 flask. The effect of varying concentrations of rAd-p53 (from 1×10^7 to 2×10^9ACN53 particles/ml of solution) was investigated in combination with CI-1 in a range of 5–20 μM. […]\nApoptosis was monitored visually by observing blebbed nuclei characteristic of apoptosis, by propidium iodide staining (using propidium iodide commercially available from Molecular Probes, Inc.) followed by flow cytometric analysis to look for subgenomic populations of cells, and by labeling cells with annexin V-FITC (commercially available from Boehringer Mannheim) in substantial accordance with the instructions provided by the manufacturer, followed by flow cytometric analysis on a FACScan Flow Cytometer (commercially available from Becton Dickinson)."}}, "note": "Square brackets hold non-standard residues; d marks the D form. Peptide text beside a SMILES is read from it. Nle = CCCC[C@H](N)C(=O)O"}
{"compound": "CCCC[C@@H](C=O)NC(=O)[C@H](CC(C)C)NC(=O)[C@H](CC(C)C)NC(C)=O", "note": "[CI-1, N-acetyl-leu-leu-norleucinal] (Ac-Leu-Leu-[Nle]-aldehyde)", "values": [{"measurement": "increase in intracellular viral DNA", "setting": "HLF cells; 10 μM CI-1, no pre-treatment, viral concentration 1×10^7 and 1×10^8 particles", "result": 50, "unit": "fold"}, {"measurement": "infectivity of the cells to the virus relative to untreated cells", "setting": "HLF cells; 6 hour pretreatment with 10 μM CI-1, ACN53 3×10^7", "result": "approximately 130 times"}, {"measurement": "Percentage of Cells Undergoing Apoptosis", "setting": "U87 cells; 10 μM CI-1, 24 hrs", "result": 41, "unit": "%"}, {"measurement": "percentage of apoptotic cells", "setting": "U87 cells; 20 μM CI-1 treatment, increase from 5%", "result": 72, "unit": "%"}, {"measurement": "cells annexin V-FITC positive", "setting": "U87 cells; calpain inhibitor 1, 10 μM for 4 days", "result": "~100", "unit": "%"}]}
